Test results as given in patent US20220356232A1, “A COMBINATION OF PLASMA IMMUNOGLOBULIN AND ANTIGEN-SPECIFIC IMMUNOGLOBULIN FOR THE MODIFICATION OF THE IMMUNE SYSTEM AND THE TREATMENT OR PREVENTION OF AUTOIMMUNE DISEASES” (Network Immunology Inc., priority 2019, published 2022).

How the values were obtained:
Format in all cases: in vivo, C57BL/6 mice
[1] = test system: PP cells isolated from colonic tissue; experiment: FACS staining of CD3+ and Foxp3+ cells in PP cells isolated from colonic tissue, chronic colitis; conditions: DSS chronic colitis, treatment as per FIG. 7A
[2] = test system: DSS-induced chronic colitis; experiment: DSS-induced chronic colitis: body weight and colon length (Example 6)
[3] = test system: DSS-induced chronic colitis; experiment: Effect of T depletion (anti-CD4 mAb) on protection from DSS-induced chronic colitis; conditions: no anti-CD4 mAb
[4] = test system: DSS-induced acute colitis; experiment: DSS-induced acute colitis (Example 6); conditions: 3% DSS 7 days; treatment from time of DSS exposure; FIGS. 12A-12C
Description: Wild-type (WT) C57BL/6 female mice, with high susceptibility to DSS-induced colitis, were used throughout and purchased from the Jackson laboratories (Bar Harbor, Me.). All mice were housed five per cage under specific pathogen-free conditions, allowed standard diet and water ad libitum, and used at 6-8 wk of age. Acute DSS colitis was induced by giving mice distilled drinking water containing 3% (wt./vol) DSS (Mol.Wt.=40 kDa; ICN Biochemicals, Aurora, Ohio) for 7 days. For induction of chronic colitis, mice were treated with 5 days of 2.5% DSS followed by 7 days of normal drinking water for a total of 3 cycles. Body weight was measured three times/week throughout the experiment. The maximum mortality observed following induction of acute colitis was 15% averaged over all studies, while no significant mortality was seen any groups in the chronic colitis model. Maximum weight loss in either model was ˜25%. […] In FIG. 12A, changes in body weight are expressed as a percent weight loss from baseline and plotted versus time post initiation of DSS treatment (x-axis). […] In FIGS. 12B and 12C, changes in colon length and 24 hr cytokine production from colon explant cultures respectively were assessed on day 9 following initiation of DSS treatment for mice shown in FIG. 12A and are expressed as mean±SD.

[5] = test system: colonic explants from mice with chronic colitis; experiment: Cytokine release from 24 hr colonic explant cultures, chronic colitis (Example 6); conditions: 24 hr colonic explant cultures harvested at 38 d; FIG. 8

## C[C@]12CCC(=O)C=C1CC[C@@H]1[C@@H]2[C@@H](O)C[C@@]2(C)[C@H]1CC[C@]2(O)C(=O)COC(=O)CCC(=O)O [Solu-Cortef]
[1]; PP cells from 2-3 mice/group
  % Ant-CD3: 4.4 ± 2.2%
  % Anti-Foxp3: 0.2 ± 0.2%
[1]; ratio, PP cells
  Foxp3:CD3: 0.04
[2]; Ig weekly ×5 im from start of first DSS cycle, Solu-Cortef 6 μg/mouse alternate days, FIG. 7A
  weight loss in second and third cycle of DSS treatment: attenuation of weight loss
[2]; all DSS cycles, 6 μg/mouse on alternate days
  suppression of disease in chronic colitis: active in suppressing disease at all times
[3]; 5 mice/group, FIG. 9A
  weight loss after induction of chronic colitis: protected
[3]; FIG. 10
  release of inflammatory cytokines from colon explant cultures: attenuation of release
[4]
  protection from pathology of acute colitis (weight loss, colon length, production of inflammatory cytokines): protected
[5]
  release of inflammatory cytokines IFNγ, TNFα, IL-1β, IL-17 and IL-6: No such increased inflammatory cytokine release
